Results published in patent US9763908B2, “Composition containing monoacetyldiglyceride compound as active ingredient for preventing or treating atopic dermatitis” (ENZYCHEM LIFESCIENCES CORPORATION, priority 2013, dated 2017).

How the values were obtained:
IL-4 [1] = experiment: IL-4 level in serum (ELISA) of mice with DNCB-induced atopic dermatitis after oral EC-18; type: in vivo, mouse
Description: (§1) DNCB (1-Chloro-2,4-dinitrobenzene, Sigma Aldrich) was diluted to 0.2% by the solvent in which olive oil and acetone were mixed in a ratio of 1:4. Diluted DNCB was applied onto back of each 7-week-old Balb/c mouse whose hairs on back were removed. During the first week application was made seven times continuously, and from the second week, application was made every two days to induce atopy.
A mixture of EC-18 and olive oil was orally administrated to the mouse 7 times during the first week by 100 μl each time in dose of 2 mq/rat, and after then, for 11 times, was administered orally by 100 μl each time in dose of 1 mg/rat, that is the mixture was orally administrated totally 18 times. For the measurement of IL-4, blood was collected from veins under the eyes of mice treated, through ocular blood (Eye bleeding) method. […] After collecting the blood of about 350 μl in the EP tube, the blood was centrifuged to separate only serum and IL-4 present in the serum was analyzed by ELISA (enzyme-linked immunosorbent assay) method. […] When the color development is completed, the stop solution (2N H2SO4+DW) was dispensed by 100 μl, and the amount of color development at 450 nm wavelength was measured at ELISA Reader. […]

IgE = IgE level in serum (ELISA) of mice with DNCB-induced atopic dermatitis after oral EC-18; type: in vivo, mouse
Description: as §1
Using the serum separated from the mouse blood, was measured the expression levels of IgE in the ELISA method as shown in Experimental Example 1. In IgE ELISA for the mouse, IgE capture antibody (BD bioscience) was diluted with 1×PBS to 2 μg/ml, dispensed to each of 96-well plate (Thermo) by 200 μl, coated for 12 hours, washed using a wash buffer in which 0.05% tween 20 was diluted in 1×PBS. After washing three times, 1% BSA was dispensed to each well by 200 μl and blocking buffer was placed for 1 hour at room temperature (RT) conditions, and then final washing was performed._Thereafter, the serum obtained from the mice was dispensed to each well by 100 μl, and the wells were placed for reaction at room temperature for 1 hours after dispensing, and unreacted IgE is washed under the same conditions. […] When the color development is completed, the stop solution (2N H2SO4+DW) was dispensed by 50 μl, and the amount of color development at 450 nm wavelength was measured. […]

[2] = system: DNCB-induced atopic dermatitis in Balb/c mouse; experiment: Visual inspection of the degree of atopic disease in the DNCB-induced mouse model; type: in vivo; settings: score 0 to 12
Description: as §1
Atopic disease models commonly used in the laboratory is a technique that induces contact Hypersensitivity (CHS) by sensitization to DNCB (1-Chloro-2,4-dinitro-benzene). This technique is a technique of inducing atopic by diluting DNCB with a solvent in which acetone and olive oil are mixed in a ratio of 4:1 to be 0.2%, and then smearing the diluted on the skin, and is for the experiment for adjusting and maintaining the expression time so that artificially severe atopy-like appearance appears could be observed two weeks after the smearing. The degree of atopic disease was evaluated by dividing the state of erythema/emorrhage, scarring/dryness, edema), excoriation/erosion which are induced on the skin, respectively into three steps (0=null, 1=mild, 2=moderate, 3=severe) and then assigning the score up to 12 from zero. It was induced in the experimental group and the control group that the time when severe atopic status ((visual inspection index of 10) is reached was two weeks after the smearing of DNCB. Further, in order to maintain this condition, after two weeks, DNCB smearing was performed every two days.
FIG. 4 is a photograph showing the degree of atopic disease for 3 weeks in mice of the EC-18 administration group (test group) and the mice of olive oil administration group (control group). […] In contrast, in the test group the administration of EC-18, visual inspection index was changed to 1 point after one week, 8 points after two weeks and 3 points after three weeks.

IL-4 [3] = experiment: IL-4 from ConA-activated lymphocytes of normal healthy people given EC-18 for four weeks (ELISA); type: in vivo, human
Description: (§2) EC-18 was administered to the normal healthy people (36 people) four weeks. EC-18 Lymphocytes separated from the blood before administration and after administration were incubated with ConA (concanavalin A). In order to measure the cytokine (IFN-γ and IL-4) which is separated from the lymphocyte (T cell) activated by Con A, culture medium was incubated for 42 hours, and were stored frozen. Purified antibody (capture antibody) of cytokine to be measured was dispensed to well (Nunc-immuno module, polysorp) by 0.2 μg/well, and left overnight at 4° C. to coat antigen. After well washing, blocking buffer (1% bovine serum albumin) treatment was performed for about 1 hour to inhibit the nonspecific binding. After washing the well, a cell culture solution was placed into each well and the antibody was combined with coating antigen for 2 hours. […] After approximately 10-30 minutes, stop solution was added into the well and absorbance at 450-570 nm was measured with Automatic Microplate reader (Molecular Devices, CA, USA). In the same manner, absorbance according to cytokine solution concentration was measured to plot standard curve, and the amount of cytokine contained in the sample was calculated by substituting the absorbance of the sample group. The change amount of cytokine calculated in this manner and significance (P<0.05) were shown in flowing Table 1 and FIGS. 5-6.

IFN-γ = IFN-γ from ConA-activated lymphocytes of normal healthy people given EC-18 for four weeks (ELISA); type: in vivo, human
Description: as §2

[4] = system: atopic symptoms in patients; experiment: Observation of atopic symptom alleviation in patients with atopic; type: in vivo, human; settings: 500 mg/day; 2 weeks (severe symptoms) or 2 days (mild skin rash); FIGS. 7 and 8
Description: To patients with severe atopic symptoms, the EC-18 was administrated every day at a dose of 500 mg/day for 2 weeks and atopic symptoms change which was taken were shown in FIG. 7. To a patient having a mild skin rash, the EC-18 was administrated every day at a dose of 500 mg/day for 2 days and atopic symptoms change which was taken were shown in FIG. 8.

sepsis animal model = settings: cecal-ligation-puncture sepsis model; stated as known; cited from earlier work
[5] = GLP toxicity test; stated as known; cited from earlier work
[6] = DNCB-induced atopic dermatitis model animals

In the case of `CCCCC/C=C\C/C=C\CCCCCCCC(=O)OC(COC(C)=O)COC(=O)CCCCCCCCCCCCCCC` (centres unmarked) [EC-18, 1-palmitoyl-2-linoleoyl-3-acetylglycerol], the “IL-4 level compared to the untreated group (olive oil treatment group), in words” value (IL-4 [1]; [6]) was “significantly decreased”, the “reduction of IL-4 level” value (IL-4 [1]; serum, two weeks vs one week after administration, oral EC-18 in olive oil, olive oil control approximately 50%) was 80% and the “IgE level compared to the untreated group (olive oil treatment group), in words” value (IgE; [6]) was “significantly decreased”. For the same compound, the “reduction of IgE level” value (IgE; serum, two weeks vs one week after administration, oral EC-18, olive oil control approximately 22%) was “about 50%”, the visual inspection index ([2]; after one week, olive oil control 3 points) was 1 point and the visual inspection index ([2]; after three weeks, olive oil control 6 points) was 3 points. For the same compound, the visual inspection index ([2]; after two weeks, olive oil control 10 points) was 8 points, the “IL-4 after EC-18 administration” value (IL-4 [3]; N = 36, four weeks of administration, before administration 246.6 ± 186.9, P <0.001) was 96.1 ± 64.2 pg/mL and the “expression level of Th2 cytokine (IL-4), in words” value (IL-4 [3]; normal subjects, 4 weeks, FIG. 5) was “reduced the expression levels of Th2 cytokine (IL-4)”. For the same compound, the “IFN-γ after EC-18 administration” value (IFN-γ; N = 36, four weeks of administration, before administration 686.4 ± 162.2, P 0.473) was 611.9 ± 209.7 pg/mL, the “expression level of Th1 cytokine (IFN-γ), in words” value (IFN-γ; normal subjects, 4 weeks, FIG. 6) was “the change did not occur uniformly” and the atopic symptoms change [4] was “the atopic symptoms are relaxed”. For the same compound, the “survivability ratio of animals” value (sepsis animal model) was “increases survivability ratio of animals” and the toxicity [5] was “no-toxicity”.
